Assay results as given in patent publication US8993574B2, “Pyrrole antifungal agents” (F2G Ltd, priority 2008, dated 2015).
In brackets after ≈: the same amount, converted by molar mass.

How the values were obtained:
Type in all cases: cell-based
Aspergillus flavus [1] = assay: MIC, YAG medium; conditions: 24 h at 35° C, MIC banded into grades; for MIC: Aspergillus flavus, 24 h, read-out: MIC grade, A. flavus
How it was run: (§1)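 Broth microdilution in YAG medium tests compound over 50-0.05 mg/L against spores at 1−2×10^4 cfu/mL. After 24 h incubation at 35° C, optical density at 485 nm gives growth, and the MIC is the lowest concentration reducing it by more than 70% relative to untreated control.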

[2] = tested on: Aspergillus fumigatus AF210; assay: MIC, YAG medium; conditions: 24 h at 35° C, MIC banded into grades; for MIC: Aspergillus fumigatus, read-out: MIC grade, A. fumigatus 210
How it was run: as §1

[3] = tested on: Aspergillus fumigatus AF293; assay: MIC, YAG medium; conditions: 24 h at 35° C, MIC banded into grades; for MIC: Aspergillus fumigatus, read-out: MIC grade, A. fumigatus
How it was run: as §1

Aspergillus niger [4] = assay: MIC, YAG medium; conditions: 24 h at 35° C, MIC banded into grades; for MIC: Aspergillus niger, read-out: MIC grade, A. niger
How it was run: as §1

Aspergillus terreus AT49 [5] = assay: MIC, YAG medium; conditions: 24 h at 35° C, MIC banded into grades; for MIC: Aspergillus terreus, read-out: MIC grade, A. terreus 49
How it was run: as §1

Aspergillus terreus AT4 [6] = assay: MIC, YAG medium; conditions: 24 h at 35° C, MIC banded into grades; for MIC: Aspergillus terreus, read-out: MIC grade, A. terreus
How it was run: as §1

Aspergillus flavus [7] = assay: MIC, RPMI medium; conditions: MIC banded into grades; for MIC: Aspergillus flavus, read-out: MIC grade, A. flavus
How it was run: (§2)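 Broth microdilution in RPMI medium with 2% glucose and 0.135 M MOPS (pH 7.0); compounds as doubling dilutions over 50-0.05 mg/L, inoculum 1−2×10^4 cfu/mL. Plates incubated 24-48 h at 35° C; OD 485 nm read, MIC being lowest concentration giving >80% growth inhibition versus drug-free control.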

[8] = tested on: Aspergillus fumigatus AF210; assay: MIC, RPMI medium; conditions: for MIC grade, A. fumigatus 210: MIC banded into grades; for MIC: Aspergillus fumigatus, AF210, MIC banded into grades, read-out: MIC grade, A. fumigatus 210
How it was run: as §2

[9] = tested on: Aspergillus fumigatus AF293; assay: MIC, RPMI medium; conditions: for MIC grade, A. fumigatus: MIC banded into grades; for MIC: Aspergillus fumigatus, AF293, MIC banded into grades, read-out: MIC grade, A. fumigatus
How it was run: as §2

Aspergillus niger [10] = assay: MIC, RPMI medium; conditions: MIC banded into grades; for MIC: Aspergillus niger, read-out: MIC grade, A. niger
How it was run: as §2

Aspergillus terreus AT49 [11] = assay: MIC, RPMI medium; conditions: for MIC grade, A. terreus 49: MIC banded into grades; for MIC: Aspergillus terreus, AT49, MIC banded into grades, read-out: MIC grade, A. terreus 49
How it was run: as §2

Aspergillus terreus AT4 [12] = assay: MIC, RPMI medium; conditions: for MIC grade, A. terreus: MIC banded into grades; for MIC: Aspergillus terreus, AT4, MIC banded into grades, read-out: MIC grade, A. terreus
How it was run: as §2

Candida albicans = assay: MIC, RPMI medium; conditions: 24-48 h at 35° C., >80% growth inhibition, banded into grades; for MIC: Candida albicans
How it was run: as §2

Candida glabrata = assay: MIC, RPMI medium; conditions: 24-48 h at 35° C., >80% growth inhibition, banded into grades; for MIC: Nakaseomyces glabratus
How it was run: as §2

Candida krusei = assay: MIC, RPMI medium; conditions: 24-48 h at 35° C., >80% growth inhibition, banded into grades; for MIC: Pichia kudriavzevii
How it was run: as §2

Candida parapsilosis = assay: MIC, RPMI medium; conditions: 24-48 h at 35° C., >80% growth inhibition, banded into grades; for MIC: Lodderomyces parapsilosis
How it was run: as §2

Candida tropicalis = assay: MIC, RPMI medium; conditions: 24-48 h at 35° C., >80% growth inhibition, banded into grades; for MIC: Candida tropicalis
How it was run: as §2

Structure (SMILES) | MIC grade, A. flavus (Aspergillus flavus [1]) | MIC grade, A. fumigatus 210 [2] | MIC grade, A. fumigatus [3] | MIC (Aspergillus flavus [1]) | MIC [2] | MIC [3] | MIC (Aspergillus niger [4]) | MIC (Aspergillus terreus AT49 [5]) | MIC (Aspergillus terreus AT4 [6]) | MIC (Aspergillus flavus [7]) | MIC [8] | MIC [9] | MIC (Aspergillus niger [10]) | MIC (Aspergillus terreus AT49 [11]) | MIC (Aspergillus terreus AT4 [12]) | MIC (Candida albicans) | MIC (Candida glabrata) | MIC (Candida krusei) | MIC (Candida parapsilosis) | MIC (Candida tropicalis) | other results
COCCn1c(C)cc(-c2ccccc2)c1C(=O)C(=O)Nc1ccccc1 [Example 60, 2-[1-(2-Methoxy-ethyl)-5-methyl-3-phenyl-1H-pyrrol-2-yl]-2-oxo-N-phenyl-1-acetamide] | 1 (a grade of 1 represents an MIC of greater than 10 mg/L) | 2 (A grade of 2 represents an MIC of from 1 to 10 mg/L) | 2 (A grade of 2 represents an MIC of from 1 to 10 mg/L) |  |  |  |  |  |  |  |  |  |  |  |  |  |  |  |  |  | MIC grade, A. niger (Aspergillus niger [4]): 2 (A grade of 2 represents an MIC of from 1 to 10 mg/L); MIC grade, A. terreus 49 (Aspergillus terreus AT49 [5]): 2 (A grade of 2 represents an MIC of from 1 to 10 mg/L); MIC grade, A. terreus (Aspergillus terreus AT4 [6]): 2 (A grade of 2 represents an MIC of from 1 to 10 mg/L); MIC grade, A. flavus (Aspergillus flavus [7]): 1 (a grade of 1 represents an MIC of greater than 10 mg/L); MIC grade, A. fumigatus 210 [8]: 2 (A grade of 2 represents an MIC of from 1 to 10 mg/L); MIC grade, A. fumigatus [9]: 2 (A grade of 2 represents an MIC of from 1 to 10 mg/L); MIC grade, A. niger (Aspergillus niger [10]): 2 (A grade of 2 represents an MIC of from 1 to 10 mg/L); MIC grade, A. terreus 49 (Aspergillus terreus AT49 [11]): 1 (a grade of 1 represents an MIC of greater than 10 mg/L); MIC grade, A. terreus (Aspergillus terreus AT4 [12]): 1 (a grade of 1 represents an MIC of greater than 10 mg/L); Candida MIC, C. albicans (Candida albicans): 3 (A grade of 3 represents an MIC of less than 1 mg/L); Candida MIC, C. glabrata (Candida glabrata): 3 (A grade of 3 represents an MIC of less than 1 mg/L); Candida MIC, C. krusei (Candida krusei): 3 (A grade of 3 represents an MIC of less than 1 mg/L); Candida MIC, C. parapsilosis (Candida parapsilosis): 3 (A grade of 3 represents an MIC of less than 1 mg/L); Candida MIC, C. tropicalis (Candida tropicalis): 2 (A grade of 2 represents an MIC of from 1 to 10 mg/L)
COCn1ccc(-c2ccccc2)c1C(=O)C(=O)Nc1ccc(N2CCN(c3cc(C)cc(C)n3)CC2)cc1 [Example 63, N-{4-[4-(4,6-Dimethyl-pyridin-2-yl)-piperazin-1-yl]-phenyl}-2-(1-methoxymethyl-3-phenyl-1H-pyrrol-2-yl)-2-oxo-acetamide] |  |  |  | < 1 µg/mL | < 1 µg/mL | < 1 µg/mL | 1 to 10 µg/mL (≈ 1.91 to 19.1 µM) | < 1 µg/mL | < 1 µg/mL | < 1 µg/mL | < 1 µg/mL | < 1 µg/mL | < 1 µg/mL | < 1 µg/mL | < 1 µg/mL | 1 to 10 µg/mL (≈ 1.91 to 19.1 µM) | < 1 µg/mL | < 1 µg/mL | < 1 µg/mL | < 1 µg/mL | 
COCCn1ccc(CC(C)C)c1C(=O)C(=O)Nc1ccc(N2CCN(c3cc(C)cc(C)n3)CC2)cc1 [Example 68, N-{4-[4-(4,6-Dimethyl-pyridin-2-yl)-piperazin-1-yl]-phenyl}-2-[3-isobutyl-1-(2-methoxy-ethyl)-1H-pyrrol-2-yl]-2-oxo-acetamide] |  |  |  | > 10 µg/mL | > 10 µg/mL | 1 to 10 µg/mL (≈ 1.93 to 19.3 µM) | > 10 µg/mL | 1 to 10 µg/mL (≈ 1.93 to 19.3 µM) | 1 to 10 µg/mL (≈ 1.93 to 19.3 µM) | > 10 µg/mL | > 10 µg/mL | > 10 µg/mL | > 10 µg/mL | > 10 µg/mL | > 10 µg/mL | < 1 µg/mL | < 1 µg/mL | 1 to 10 µg/mL (≈ 1.93 to 19.3 µM) | < 1 µg/mL | < 1 µg/mL | 
CCOC(=O)Cn1c(C)cc(-c2ccccc2)c1C(=O)C(=O)Nc1ccc(N2CCN(c3cc(C)cc(C)n3)CC2)cc1 [Example 69, (2-{4-[4-(4,6-Dimethyl-pyridin-2-yl)-piperazin-1-yl]-phenylaminooxalyl}-5-methyl-3-phenyl-pyrrol-1-yl)-acetic acid ethyl ester] | 2 (A grade of 2 represents an MIC of from 1 to 10 mg/L) | 3 (A grade of 3 represents an MIC of less than 1 mg/L) | 3 (A grade of 3 represents an MIC of less than 1 mg/L) |  |  |  |  |  |  |  |  |  |  |  |  |  |  |  |  |  | MIC grade, A. niger (Aspergillus niger [4]): 3 (A grade of 3 represents an MIC of less than 1 mg/L); MIC grade, A. terreus 49 (Aspergillus terreus AT49 [5]): 3 (A grade of 3 represents an MIC of less than 1 mg/L); MIC grade, A. terreus (Aspergillus terreus AT4 [6]): 3 (A grade of 3 represents an MIC of less than 1 mg/L); MIC grade, A. flavus (Aspergillus flavus [7]): 1 (a grade of 1 represents an MIC of greater than 10 mg/L); MIC grade, A. fumigatus 210 [8]: 3 (A grade of 3 represents an MIC of less than 1 mg/L); MIC grade, A. fumigatus [9]: 3 (A grade of 3 represents an MIC of less than 1 mg/L); MIC grade, A. niger (Aspergillus niger [10]): 3 (A grade of 3 represents an MIC of less than 1 mg/L); MIC grade, A. terreus 49 (Aspergillus terreus AT49 [11]): 2 (A grade of 2 represents an MIC of from 1 to 10 mg/L); MIC grade, A. terreus (Aspergillus terreus AT4 [12]): 2 (A grade of 2 represents an MIC of from 1 to 10 mg/L); Candida MIC, C. albicans (Candida albicans): 2 (A grade of 2 represents an MIC of from 1 to 10 mg/L); Candida MIC, C. glabrata (Candida glabrata): 3 (A grade of 3 represents an MIC of less than 1 mg/L); Candida MIC, C. krusei (Candida krusei): 2 (A grade of 2 represents an MIC of from 1 to 10 mg/L); Candida MIC, C. parapsilosis (Candida parapsilosis): 3 (A grade of 3 represents an MIC of less than 1 mg/L); Candida MIC, C. tropicalis (Candida tropicalis): 3 (A grade of 3 represents an MIC of less than 1 mg/L)
COCCn1ccc(-c2cccc(Cl)c2)c1C(=O)C(=O)Nc1ccc(N2CCN(c3cc(C)cc(C)n3)CC2)cc1 [Example 70, 2-[3-(3-Chloro-phenyl)-1-(2-methoxy-ethyl)-1H-pyrrol-2-yl]-N-{4-[4-(4,6-dimethyl-pyridin-2-yl)-piperazin-1-yl]-phenyl}-2-oxo-acetamide] |  |  |  | 1 to 10 µg/mL (≈ 1.75 to 17.5 µM) | < 1 µg/mL | < 1 µg/mL | > 10 µg/mL | < 1 µg/mL | < 1 µg/mL | 1 to 10 µg/mL (≈ 1.75 to 17.5 µM) | 1 to 10 µg/mL (≈ 1.75 to 17.5 µM) | 1 to 10 µg/mL (≈ 1.75 to 17.5 µM) | > 10 µg/mL | 1 to 10 µg/mL (≈ 1.75 to 17.5 µM) | 1 to 10 µg/mL (≈ 1.75 to 17.5 µM) | 1 to 10 µg/mL (≈ 1.75 to 17.5 µM) | < 1 µg/mL | 1 to 10 µg/mL (≈ 1.75 to 17.5 µM) | < 1 µg/mL | 1 to 10 µg/mL (≈ 1.75 to 17.5 µM) | 
COCCn1ccc(-c2ccsc2)c1C(=O)C(=O)Nc1ccc(N2CCN(c3cc(C)cc(C)n3)CC2)cc1 [Example 72, N-{4-[4-(4,6-Dimethyl-pyridin-2-yl)-piperazin-1-yl]-phenyl}-2-[1-(2-methoxy-ethyl)-3-thiophen-3-yl-1H-pyrrol-2-yl]-2-oxo-acetamide] |  |  |  | 1 to 10 µg/mL (≈ 1.84 to 18.4 µM) | < 1 µg/mL | < 1 µg/mL | < 1 µg/mL | < 1 µg/mL | < 1 µg/mL | 1 to 10 µg/mL (≈ 1.84 to 18.4 µM) | 1 to 10 µg/mL (≈ 1.84 to 18.4 µM) | 1 to 10 µg/mL (≈ 1.84 to 18.4 µM) | 1 to 10 µg/mL (≈ 1.84 to 18.4 µM) | 1 to 10 µg/mL (≈ 1.84 to 18.4 µM) | 1 to 10 µg/mL (≈ 1.84 to 18.4 µM) | < 1 µg/mL | < 1 µg/mL | 1 to 10 µg/mL (≈ 1.84 to 18.4 µM) | < 1 µg/mL | < 1 µg/mL | 
